Values of other authors, collected in patent US11090329B2, “Method and composition for treating gastro-esophageal disorders” (priority 2012, dated 2021).

Test system: esophagitis caused by chemo-radiotherapy
Settings: patients with advanced stage III non-small-cell lung cancer

O=C(O[C@@H]1Cc2c(O)cc(O)cc2O[C@@H]1c1cc(O)c(O)c(O)c1)c1cc(O)c(O)c(O)c1 [EGCG, epigallocatechin gallate A]
esophagitis caused by chemo-radiotherapy: reduce esophagitis
